US20050054620A1, “Paricalcitol as a chemotherapeutic agent” (priority 2003, published 2005)

Assays:
[1] = test system: U937 cells expressing PML-RARA (PR9); test: CD14 expression by flow cytometry, PR9 cells with zinc; format: cell-based, human; settings: paricalcitol 0.01 μM; 3 days; compared to PR9 without zinc
Experimental: (§1) (A) NB-4 myeloid leukemia cell lines were treated with paricalcitol (0.1 μM) and/or arsenic trioxide (0.6 μM) for 3 days. Control cells were treated with vehicle alone. Cell lysates were made and used for Western blot which was probed sequentially with antibodies to RARA to detect the fusion protein PML-RARα. (B) U937 cells were stably transfected with either the control MT vector (U937-PMT) or the PML-RARα cDNA under the control of the Zn2^+-inducible murine metallothionein 1 promoter (PR9). Cells were treated either with (+) or without (−) Zn for 2 days. Paricalcitol and/or arsenic trioxide of the indicated doses were added to the cells. Cell lysates were harvested and used for Western blot which was probed with antibodies to RARα to detect PML-RARα fusion protein (120 kb). (C) U937-PMT and PR9 cells were treated either with or without Zn and with paricalcitol, and/or arsenic trioxide as indicated for 3 days, and CD14 expression was measured by flow cytometry.
Cell lines used in this study were obtained from American Type Culture Collection (Rockville, Md.) and were maintained according to their recommendations. Myeloid leukemia cell lines (HL-60, NB-4, THP-1, U937), lymphoma cell lines (Raji, Ramos, Daudi, Jurkat, Jeko-1, JUDHL), myeloma cell lines (RPMI-8226, ARH-77, NCI-H929), ovarian cancer cell lines and PC-3 prostate cell line were grown in RPMI 1640 with 10% FCS. […]

[2] = test system: HT-29 human colon cancer tumors; test: HT-29 tumors growing in nude mice; format: in vivo; settings: 100 ng/mouse intraperitoneally 3 days a week, vs diluant control
Experimental: HT-29 cells were bilaterally injected subcutaneously into nude mice, forming two tumors per mouse. The mice were divided randomly into control and experimental groups. […] In FIG. 5A, tumor volumes were measured every week. The mean volume±SD of 10 tumors in each group is shown. […] In FIG. 5B, After 4 weeks of therapy, tumors were removed from each group and weighed. […] For the mouse studies, BNX nu/nu nude mice at 8 weeks of age were purchased from Harlan Sprangue Dawley, Inc. (Indianapolis, Ind.) and their care was in accord with the guidelines of Cedars-Sinai Research Institute. They were maintained in pathogen-free conditions with irradiated chow. […] The mice were blindly randomized to the experimental and control groups. Treatment was started on the day after the injection of […] cells and continued for 6 weeks. […] Tumor sizes were measured every week and calculated by the formula: A (length)×B (width)×C (height)×0.5236. […] All mice were euthanized at the end of the study, and the tumors were fixed in 10% neutral buffered formalin and embedded in paraffin for histological analysis. The data were analyzed by Student's t test.

NCI-H929 myeloma cells = settings: 4 days exposure
SW837 cells = test: Western blot of cell lysates; format: cell-based, human; settings: 10^−7M, 72 hrs
Experimental: Western blot analysis was used to determine the levels of proteins involved in cell cycle and differentiation. […] After centrifugation at 15,000×g for 15 min at 4° C., the suspension was collected. Protein concentrations were quantitated using the Bio-Rad assay (Bio-Rad Labolatories, Hercules, Calif.). […] The blots were developed using the Supersignal West Pico Chemiluminescent Substrate Kit (Pierce, Rockford, Ill.). In FIG. 4C, HT-29 and SW837 cells were cultured with either paricalcitol (10^−7M) or 1,25(OH)2D3 (10^−7M) for 72 hrs. Cell lysates were prepared and analyzed by Western blot which was probed sequentially with antibodies to COX-1 and COX-2 (Santa Cruz Biotechnology). Control cells were treated with vehicle alone. The amount of protein was normalized by comparison to the quantity of GAPDH.

NCI-H929 cells = test: Western blot of cell lysates; format: cell-based, human
Experimental: Western blot analysis was used to determine the levels of proteins involved in cell cycle and differentiation. […] After centrifugation at 15,000×g for 15 min at 4° C., the suspension was collected. Protein concentrations were quantitated using the Bio-Rad assay (Bio-Rad Labolatories, Hercules, Calif.). […] The blots were developed using the Supersignal West Pico Chemiluminescent Substrate Kit (Pierce, Rockford, Ill.). In FIG. 3C, NCI-H929 cells were treated with either paricalcitol (10^−7M) or 1,25(OH)2D3 (10^−7M) and cell lysates were prepared after 72 hrs. Cell lysates were used for Western blot analysis and probed sequentially with antibodies to p27KIP1, Bcl-2 and Bax. Control cells were treated with vehicle alone. Amount of protein was normalized by comparison to the amount of GAPDH. […] The Bcl-2 and Bax antibodies were obtained from Santa Cruz Biotechnology Inc., Santa Cruz, Calif.

PML-RARα fusion protein = test: Western blot for PML-RARα in PR9 cells with zinc; format: cell-based, human
Experimental: as §1, with “Cell lysates were harvested and used for Western blot which was probed with antibodies to RARα to detect PML-RARα fusion protein (120 kb).” left out
Western blot analysis was performed as follows: cells were washed twice in PBS, suspended in lysis buffer (50 mM Tris at pH 8.0, 150 mM NaCl, 0.1% SDS, 0.5% sodium deoxycholate, 1% Nonidet P-40, phenylmethylsulfonyl fluoride at 100 μg/mL, aprotinin at 2 μg/mL, pepstatin at 1 μg/mL, and leupetin at 10 μg/mL), and placed on ice for 30 minutes. […] Protein concentrations were quantitated by using the Bio-Rad protein Assay Dye Reagent Concentrate (Bio-Rad Laboratories, Hercules, Calif.) according to the manufacture's recommendation. […]

| Compound | differentiation (CD14) of PR9 cells cultured with zinc [1] | mean tumor weights ([2]; after 4 weeks, p=0.0004) | growth of colon cancer tumors (tumor volumes) ([2]; p=0.03) | antiproliferative effect by MTT assay (NCI-H929 myeloma cells) | decrease of COX-2 expression (SW837 cells) [%] | effect on COX-1 expression (SW837 cells) | expression of Bcl-2 and p27^KIP1 (NCI-H929 cells; 0.01 μM each, 3 days) | decrease of Bcl-2 protein level (NCI-H929 cells; 10^−7M, 72 hrs) | effect on levels of Bax (NCI-H929 cells; 10^−7M, 72 hrs) | effect on levels of p21WAF1 (NCI-H929 cells; 10^−7M, 96 hrs) | increase of p27KIP1 expression (NCI-H929 cells; 10^−7M, 96 hrs) | concentration at which PML-RARα protein expression was barely detectable (PML-RARα fusion protein; PR9 cells with zinc) | protein level of PML-RARa induced by zinc (PML-RARα fusion protein; PR9 cells, dose dependent) |
| --- | --- | --- | --- | --- | --- | --- | --- | --- | --- | --- | --- | --- | --- |
| C[C@H](/C=C/[C@H](C)C(C)(C)O)[C@H]1CC[C@H]2/C(=C/C=C3C[C@@H](O)C[C@H](O)C3)CCC[C@]12C [paricalcitol, 19-nor-1,25, (OH)2D3] | partially blocked | significantly suppressed | significantly suppressed | sensitive | 40 | without affecting | down-regulated | about 40% | did not affect | little effect | about 3 fold |  |  |
| arsenic trioxide |  |  |  |  |  |  |  |  |  |  |  | over 0.4 μM | decreased the protein level of PML-RARa |
